Experimental data from US10870647B2, “Imidazopyridine derivative, method for preparing same, and pharmaceutical composition containing same as active ingredient for preventing or treating cancer” (DAEGU-GYEONGBUK MEDICAL INNOVATION FOUNDATION, priority 2016, dated 2020).

How the values were obtained:
Test in all cases: Kinase selectivity, scanMAX Kinase assay panel (DiscoverX), % control at 1 uM
Assay type in all cases: binding
[1] = molecular target: T1, scanMAX Kinase assay panel (Homo sapiens, UniProt Q12852); details: DLK; 1 uM; read-out: Percent Control (%)
T1 construct: purchased DiscoverX
T1 sequence (Q12852 1-859): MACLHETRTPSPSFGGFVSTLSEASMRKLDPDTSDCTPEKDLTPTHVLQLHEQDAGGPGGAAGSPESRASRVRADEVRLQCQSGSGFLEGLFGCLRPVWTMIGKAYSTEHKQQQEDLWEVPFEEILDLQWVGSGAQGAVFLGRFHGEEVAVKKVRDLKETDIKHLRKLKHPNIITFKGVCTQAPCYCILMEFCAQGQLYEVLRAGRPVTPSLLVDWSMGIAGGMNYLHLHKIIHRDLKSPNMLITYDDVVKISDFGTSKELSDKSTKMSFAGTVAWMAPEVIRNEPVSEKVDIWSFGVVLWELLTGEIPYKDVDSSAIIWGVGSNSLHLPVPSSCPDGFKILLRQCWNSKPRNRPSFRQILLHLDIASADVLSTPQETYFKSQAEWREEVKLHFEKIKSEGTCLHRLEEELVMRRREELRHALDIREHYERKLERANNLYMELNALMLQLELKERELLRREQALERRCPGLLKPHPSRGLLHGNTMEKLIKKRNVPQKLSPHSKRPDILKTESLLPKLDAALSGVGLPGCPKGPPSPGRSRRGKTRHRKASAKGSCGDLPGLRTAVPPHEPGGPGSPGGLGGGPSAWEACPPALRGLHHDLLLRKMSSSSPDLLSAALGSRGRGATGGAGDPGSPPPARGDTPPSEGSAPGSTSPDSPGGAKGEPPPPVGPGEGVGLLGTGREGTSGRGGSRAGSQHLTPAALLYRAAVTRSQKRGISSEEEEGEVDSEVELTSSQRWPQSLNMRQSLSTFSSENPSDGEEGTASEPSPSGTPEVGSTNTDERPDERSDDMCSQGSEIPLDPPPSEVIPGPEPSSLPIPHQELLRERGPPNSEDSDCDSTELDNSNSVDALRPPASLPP
How it was run: (§1)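 Each kinase was first exposed to the test compound at 1 uM in DMSO. Signal was then normalised to positive and negative controls to give % control. Finally, any enzyme showing <35% control was judged inhibited.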

[2] = molecular target: T2, scanMAX Kinase assay panel (Homo sapiens, UniProt Q13882); details: BRK; 1 uM; read-out: Percent Control (%)
T2 construct: purchased DiscoverX
T2 sequence (Q13882 whole entry): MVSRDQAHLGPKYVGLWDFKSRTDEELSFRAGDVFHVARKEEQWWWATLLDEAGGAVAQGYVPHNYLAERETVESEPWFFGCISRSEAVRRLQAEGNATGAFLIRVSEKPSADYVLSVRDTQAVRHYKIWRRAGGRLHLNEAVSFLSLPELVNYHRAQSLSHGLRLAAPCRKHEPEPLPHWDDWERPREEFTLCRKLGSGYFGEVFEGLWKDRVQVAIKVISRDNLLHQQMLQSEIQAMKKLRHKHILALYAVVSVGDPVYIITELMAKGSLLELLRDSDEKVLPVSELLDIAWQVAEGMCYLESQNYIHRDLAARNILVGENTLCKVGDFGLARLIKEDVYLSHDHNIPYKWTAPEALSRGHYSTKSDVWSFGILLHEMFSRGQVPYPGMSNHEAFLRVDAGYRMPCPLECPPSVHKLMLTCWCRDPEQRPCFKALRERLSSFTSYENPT
How it was run: as §1

[3] = molecular target: T3, scanMAX Kinase assay panel (Mycobacterium tuberculosis, UniProt P9WI81); details: read-out: Percent Control (%)
T3 construct: purchased DiscoverX
T3 sequence (P9WI81 whole entry): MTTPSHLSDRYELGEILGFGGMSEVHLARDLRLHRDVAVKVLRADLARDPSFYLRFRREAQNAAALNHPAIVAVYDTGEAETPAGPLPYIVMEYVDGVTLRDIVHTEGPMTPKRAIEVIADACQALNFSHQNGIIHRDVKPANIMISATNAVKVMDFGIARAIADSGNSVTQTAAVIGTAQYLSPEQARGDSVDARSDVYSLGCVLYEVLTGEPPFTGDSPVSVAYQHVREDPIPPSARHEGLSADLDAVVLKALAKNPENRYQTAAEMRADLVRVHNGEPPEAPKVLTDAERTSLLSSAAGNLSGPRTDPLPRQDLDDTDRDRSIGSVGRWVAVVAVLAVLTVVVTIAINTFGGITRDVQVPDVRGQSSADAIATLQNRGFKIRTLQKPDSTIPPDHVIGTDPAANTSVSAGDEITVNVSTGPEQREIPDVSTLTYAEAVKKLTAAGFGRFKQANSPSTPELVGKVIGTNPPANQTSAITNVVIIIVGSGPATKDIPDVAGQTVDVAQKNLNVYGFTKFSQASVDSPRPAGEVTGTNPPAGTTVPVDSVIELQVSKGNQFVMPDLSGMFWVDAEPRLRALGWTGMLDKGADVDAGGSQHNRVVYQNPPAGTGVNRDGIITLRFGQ
How it was run: as §1

[4] = molecular target: T4, scanMAX Kinase assay panel (Homo sapiens, UniProt P49761); details: CLK3; 1 uM; read-out: Percent Control (%)
T4 construct: purchased DiscoverX
T4 sequence (P49761 whole entry): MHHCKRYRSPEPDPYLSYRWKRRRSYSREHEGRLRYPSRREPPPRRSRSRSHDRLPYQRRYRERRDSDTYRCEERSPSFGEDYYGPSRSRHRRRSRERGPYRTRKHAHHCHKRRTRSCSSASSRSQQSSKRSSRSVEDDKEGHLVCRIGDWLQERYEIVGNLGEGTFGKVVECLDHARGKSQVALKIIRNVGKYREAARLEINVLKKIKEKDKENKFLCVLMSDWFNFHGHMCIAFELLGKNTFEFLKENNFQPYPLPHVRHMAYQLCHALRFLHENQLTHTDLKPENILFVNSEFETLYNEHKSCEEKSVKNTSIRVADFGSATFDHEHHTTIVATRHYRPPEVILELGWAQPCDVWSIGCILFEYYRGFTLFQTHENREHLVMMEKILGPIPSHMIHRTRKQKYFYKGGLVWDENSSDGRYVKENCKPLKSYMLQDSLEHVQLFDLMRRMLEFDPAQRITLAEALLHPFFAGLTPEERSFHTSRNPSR
How it was run: as §1

[5] = molecular target: T5, scanMAX Kinase assay panel (Homo sapiens, UniProt P15056, V600E); details: BRAF (V600E); 1 uM; read-out: Percent Control (%)
T5 construct: purchased DiscoverX
T5 sequence (P15056 whole entry V600E): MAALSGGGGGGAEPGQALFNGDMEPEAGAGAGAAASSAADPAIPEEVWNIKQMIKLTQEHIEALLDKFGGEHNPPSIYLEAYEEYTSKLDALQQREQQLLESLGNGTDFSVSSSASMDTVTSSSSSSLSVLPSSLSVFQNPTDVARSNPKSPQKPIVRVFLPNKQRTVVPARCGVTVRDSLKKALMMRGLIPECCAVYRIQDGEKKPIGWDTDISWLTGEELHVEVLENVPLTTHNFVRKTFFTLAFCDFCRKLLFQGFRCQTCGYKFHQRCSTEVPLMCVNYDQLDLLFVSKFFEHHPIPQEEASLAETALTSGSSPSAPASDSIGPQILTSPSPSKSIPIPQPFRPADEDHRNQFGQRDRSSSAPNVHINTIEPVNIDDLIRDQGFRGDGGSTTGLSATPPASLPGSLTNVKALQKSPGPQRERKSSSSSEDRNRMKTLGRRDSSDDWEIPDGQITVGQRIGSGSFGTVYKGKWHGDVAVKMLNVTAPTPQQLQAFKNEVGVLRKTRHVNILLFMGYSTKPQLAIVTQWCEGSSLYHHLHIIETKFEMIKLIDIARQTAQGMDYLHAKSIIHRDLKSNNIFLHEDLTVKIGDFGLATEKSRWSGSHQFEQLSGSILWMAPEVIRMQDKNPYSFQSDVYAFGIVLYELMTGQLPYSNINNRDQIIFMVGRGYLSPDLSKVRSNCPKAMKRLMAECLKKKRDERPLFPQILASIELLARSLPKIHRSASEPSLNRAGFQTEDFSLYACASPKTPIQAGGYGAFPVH
How it was run: as §1

[6] = molecular target: T6, scanMAX Kinase assay panel (Homo sapiens, UniProt P42685); details: FRK; 1 uM; read-out: Percent Control (%)
T6 construct: purchased DiscoverX
T6 sequence (P42685 whole entry): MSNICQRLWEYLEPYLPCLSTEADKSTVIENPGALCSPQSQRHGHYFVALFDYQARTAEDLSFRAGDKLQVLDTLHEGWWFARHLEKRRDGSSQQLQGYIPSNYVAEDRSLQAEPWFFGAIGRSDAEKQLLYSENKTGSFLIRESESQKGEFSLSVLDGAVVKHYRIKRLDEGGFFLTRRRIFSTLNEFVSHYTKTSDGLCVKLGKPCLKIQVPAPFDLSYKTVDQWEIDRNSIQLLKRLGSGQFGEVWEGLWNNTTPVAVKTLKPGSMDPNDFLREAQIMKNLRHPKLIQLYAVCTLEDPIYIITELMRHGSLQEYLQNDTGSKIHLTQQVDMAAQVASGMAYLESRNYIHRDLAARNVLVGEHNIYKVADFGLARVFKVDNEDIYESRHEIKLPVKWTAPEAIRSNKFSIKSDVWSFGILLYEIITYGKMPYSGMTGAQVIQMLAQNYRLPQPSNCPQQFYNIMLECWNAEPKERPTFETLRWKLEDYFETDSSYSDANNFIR
How it was run: as §1

[7] = molecular target: T7, scanMAX Kinase assay panel (Homo sapiens, UniProt P51957); details: NEK4; 1 uM; read-out: Percent Control (%)
T7 construct: purchased DiscoverX
T7 sequence (P51957 whole entry): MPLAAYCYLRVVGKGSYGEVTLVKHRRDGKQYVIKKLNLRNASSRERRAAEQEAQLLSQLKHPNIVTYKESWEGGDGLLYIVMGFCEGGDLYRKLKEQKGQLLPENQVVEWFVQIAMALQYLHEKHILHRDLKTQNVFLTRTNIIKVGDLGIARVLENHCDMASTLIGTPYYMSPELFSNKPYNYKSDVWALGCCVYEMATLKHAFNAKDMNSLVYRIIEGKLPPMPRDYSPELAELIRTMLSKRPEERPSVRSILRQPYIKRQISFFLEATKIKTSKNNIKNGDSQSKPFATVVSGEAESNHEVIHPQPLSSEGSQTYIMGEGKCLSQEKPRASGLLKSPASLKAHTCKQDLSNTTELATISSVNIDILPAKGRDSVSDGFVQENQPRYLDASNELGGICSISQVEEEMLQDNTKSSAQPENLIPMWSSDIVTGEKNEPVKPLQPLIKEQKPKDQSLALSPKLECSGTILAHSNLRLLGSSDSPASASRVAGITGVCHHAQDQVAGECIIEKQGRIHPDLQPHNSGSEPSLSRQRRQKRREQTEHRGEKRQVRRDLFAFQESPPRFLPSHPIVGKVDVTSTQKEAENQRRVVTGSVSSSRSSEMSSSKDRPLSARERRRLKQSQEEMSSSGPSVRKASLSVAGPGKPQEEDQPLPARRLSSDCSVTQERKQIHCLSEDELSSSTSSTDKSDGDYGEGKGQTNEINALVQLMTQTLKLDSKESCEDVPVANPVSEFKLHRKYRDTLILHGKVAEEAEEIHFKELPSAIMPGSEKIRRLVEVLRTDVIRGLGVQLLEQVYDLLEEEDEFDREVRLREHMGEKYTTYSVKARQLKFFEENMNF
How it was run: as §1

[8] = molecular target: T8, scanMAX Kinase assay panel (Homo sapiens, UniProt Q9H2K8); details: TAOK3; 1 uM; read-out: Percent Control (%)
T8 construct: purchased DiscoverX
T8 sequence (Q9H2K8 1-898): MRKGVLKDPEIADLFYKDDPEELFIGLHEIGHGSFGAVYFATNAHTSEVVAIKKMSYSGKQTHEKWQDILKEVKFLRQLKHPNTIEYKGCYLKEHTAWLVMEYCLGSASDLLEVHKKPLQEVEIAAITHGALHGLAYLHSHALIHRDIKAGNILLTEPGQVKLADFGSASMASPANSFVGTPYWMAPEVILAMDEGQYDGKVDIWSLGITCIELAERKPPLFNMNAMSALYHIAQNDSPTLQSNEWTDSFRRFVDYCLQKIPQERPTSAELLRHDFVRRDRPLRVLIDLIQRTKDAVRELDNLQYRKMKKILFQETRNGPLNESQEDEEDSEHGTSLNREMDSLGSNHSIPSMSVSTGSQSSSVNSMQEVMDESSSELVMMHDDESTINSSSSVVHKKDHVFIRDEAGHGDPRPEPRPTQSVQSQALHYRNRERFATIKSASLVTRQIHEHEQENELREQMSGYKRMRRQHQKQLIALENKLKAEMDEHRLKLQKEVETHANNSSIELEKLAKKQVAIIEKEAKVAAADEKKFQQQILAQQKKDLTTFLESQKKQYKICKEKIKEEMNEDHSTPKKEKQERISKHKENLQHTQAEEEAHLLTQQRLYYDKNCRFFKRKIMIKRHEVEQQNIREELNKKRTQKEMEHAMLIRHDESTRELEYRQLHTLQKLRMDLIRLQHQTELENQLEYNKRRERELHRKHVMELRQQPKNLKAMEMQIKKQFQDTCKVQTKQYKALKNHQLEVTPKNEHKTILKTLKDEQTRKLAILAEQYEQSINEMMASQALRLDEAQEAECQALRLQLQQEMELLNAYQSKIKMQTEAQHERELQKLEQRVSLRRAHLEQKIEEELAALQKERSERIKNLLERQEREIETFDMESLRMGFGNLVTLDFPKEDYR
How it was run: as §1

[9] = molecular target: T9, scanMAX Kinase assay panel (Homo sapiens, UniProt P16234); details: PDGFRA; 1 uM; read-out: Percent Control (%)
T9 construct: purchased DiscoverX
T9 sequence (P16234 24-1089): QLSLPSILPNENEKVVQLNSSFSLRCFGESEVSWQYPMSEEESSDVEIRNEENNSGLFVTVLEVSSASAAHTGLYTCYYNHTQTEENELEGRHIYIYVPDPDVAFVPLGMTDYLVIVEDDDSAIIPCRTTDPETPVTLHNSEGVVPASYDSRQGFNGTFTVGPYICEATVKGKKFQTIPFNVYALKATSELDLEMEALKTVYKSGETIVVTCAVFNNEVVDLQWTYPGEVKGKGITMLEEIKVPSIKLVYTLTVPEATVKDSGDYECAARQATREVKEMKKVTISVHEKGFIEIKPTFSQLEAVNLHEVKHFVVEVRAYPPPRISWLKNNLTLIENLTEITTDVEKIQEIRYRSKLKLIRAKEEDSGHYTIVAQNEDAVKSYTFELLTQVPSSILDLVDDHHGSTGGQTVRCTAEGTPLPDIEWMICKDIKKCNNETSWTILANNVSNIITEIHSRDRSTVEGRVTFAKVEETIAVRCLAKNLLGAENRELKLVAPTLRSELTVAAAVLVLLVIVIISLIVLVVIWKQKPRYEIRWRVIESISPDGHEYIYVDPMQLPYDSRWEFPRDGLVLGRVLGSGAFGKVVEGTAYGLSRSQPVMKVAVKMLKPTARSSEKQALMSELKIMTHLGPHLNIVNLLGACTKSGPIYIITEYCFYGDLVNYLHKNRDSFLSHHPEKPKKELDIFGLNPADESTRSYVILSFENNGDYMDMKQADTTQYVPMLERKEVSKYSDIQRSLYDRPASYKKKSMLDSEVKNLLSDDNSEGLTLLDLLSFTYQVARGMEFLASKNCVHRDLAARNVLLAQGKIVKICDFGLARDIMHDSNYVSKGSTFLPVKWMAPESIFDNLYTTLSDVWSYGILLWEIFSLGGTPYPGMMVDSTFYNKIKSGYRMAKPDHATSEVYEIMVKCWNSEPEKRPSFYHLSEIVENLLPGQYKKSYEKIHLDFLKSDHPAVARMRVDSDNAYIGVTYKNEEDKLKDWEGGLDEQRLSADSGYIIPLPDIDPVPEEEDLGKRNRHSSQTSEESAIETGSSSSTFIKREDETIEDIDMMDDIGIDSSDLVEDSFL
How it was run: as §1

Compound | remaining binding at 1 µM [1] [%] | remaining binding at 1 µM [2] [%] | remaining binding at 1 µM [3] [%] | remaining binding at 1 µM [4] [%] | remaining binding at 1 µM [5] [%] | remaining binding at 1 µM [6] [%] | remaining binding at 1 µM [7] [%] | remaining binding at 1 µM [8] [%] | remaining binding at 1 µM [9] [%]
Cc1ccc(C(=O)Nc2ccc(CN3CCN(C)CC3)c(C(F)(F)F)c2)cc1C#Cc1cnc2c(Nc3cnn(C)c3)cccn12 [Example 1, 4-methyl-3-((8-((1-methyl-1H-pyrazol-4-yl)amino)imidazo[1,2-a]pyridin-3-yl)ethynyl)-N-(4-((4-methylpiperazin-1-yl)methyl)-3-(trifluoromethyl)phenyl)benzamide] | 29 | 23 | 95 | 48 | 5 | 2 | 9 | 1 | 1
Cc1cn(-c2cc(NC(=O)c3ccc(C)c(C#Cc4cnc5c(Nc6cnn(C)c6)cccn45)c3)cc(C(F)(F)F)c2)cn1 [Example 12, 4-methyl-N-(3-(4-methyl-1H-imidazol-1-yl)-5-(trifluoromethyl)phenyl)-3-((8-((1-methyl-1H-pyrazol-4-yl)amino)imidazo[1,2-a]pyridin-3-yl)ethynyl)benzamide] | 100 | 68 | 100 | 100 | 56 | 14 | 61 | 61 | 4
Cc1ccc(NC(=O)C2(C(=O)Nc3ccc(F)cc3)CC2)cc1C#Cc1cnc2c(Nc3cnn(C(C)C)c3)cccn12 [Example 78] | 100 | 99 | 97 | 100 | 100 | 69 | 100 | 99 | 29
